Data published in PMC10739246 (ACS Bio & Med Chem Au, 2023).
Converted amounts (≈) assume the structure as drawn. “Also recorded” adds a separate entry of the source. Read-outs that look alike come from different tables or passages of the source.

Columns and labels:
E. coli (W3110) = test: MIC, microdilution, E. coli W3110; type: cell-based, Escherichia coli; details: Escherichia coli
[1] = test system: norfloxacin-resistant clinical isolate of E. coli; test: MIC, microdilution, norfloxacin-resistant clinical isolate of E. coli; type: cell-based, Escherichia coli; details: Escherichia coli, read-out: MIC E. coli (norfloxacin-resistant strain)
P. aeruginosa (PAO1) = test: MIC, microdilution, P. aeruginosa PAO1; type: cell-based, Pseudomonas aeruginosa; details: Pseudomonas aeruginosa, PAO1
[2] = test system: K. pneumoniae (ATCC 10031); test: MIC, K. pneumoniae ATCC 10031; type: cell-based, Klebsiella pneumoniae; details: Klebsiella pneumoniae, ATCC10031
S. aureus (CCUG1800T) = test: MIC, microdilution, S. aureus CCUG1800T; type: cell-based, Staphylococcus aureus; details: Staphylococcus aureus
[3] = test system: S. aureus (ATCC 43300) MRSA; test: MIC, microdilution, MRSA ATCC 43300; type: cell-based, Staphylococcus aureus; details: Staphylococcus aureus; norfloxacin-resistant strain
E. faecalis (ATCC 19433) = test: MIC, E. faecalis ATCC 19433; type: cell-based, Enterococcus faecalis; details: Enterococcus faecalis, ATCC19433
[4] = test system: M. tuberculosis (MC26020); test: microbe, parasite or virus in culture; type: cell-based, Mycobacterium tuberculosis; details: Mycobacterium tuberculosis, read-out: MIC M. tuberculosis (MC26020)
E. coli DNA gyrase = target: T1, E. coli DNA gyrase (Escherichia coli, UniProt P0AES4+P0AES6); test: In vitro DNA gyrase cleavage assay; type: biochemical
T1 construct: purchased Inspiralis

E. coli topoisomerase IV = target: T2, E. coli topoisomerase IV (Escherichia coli, UniProt P0AFI2+P20083); test: In vitro topoisomerase IV cleavage assay; type: biochemical; details: read-out: % topoisomerase IV inhibition
T2 construct: purchased Inspiralis

E. coli W3110 = test: Bacterial cytological profiling (BCP) in E. coli W3110; type: cell-based, Escherichia coli
B. subtilis DSM402 [5] = test: Bacterial cytological profiling (BCP) in B. subtilis DSM402; type: cell-based, Bacillus subtilis
MreB in B. subtilis MW10 = test: MreB mobility assay; type: cell-based, Bacillus subtilis; details: B. subtilis MW10, 1 h of antibiotic exposure
Description: MreB is an actin homologue that forms filamentous structures along the lateral axis of the cell. It moves along the length of the cells in a spiraling pattern thereby driving lateral peptidoglycan synthesis.[36],[37] MreB mobility is sensitive to inhibition of peptidoglycan synthesis and so far, every cell wall synthesis inhibitor we tested abolished MreB movement (see Figure S70 for examples).
Expression of msfGFP-MreB was induced with 0.3% xylose. Pictures were taken after 1 h of antibiotic exposure. Two images of the same field of view were recorded 30 s apart and overlaid in ImageJ to visualize MreB mobility. A perfect overlap (yellow) indicates stalled MreB movement, while distinct red and green foci are indicative of MreB mobility. Scale bar 2 μm.
Fig. S70: MreB motility in B. subtilis MW10 after treatment with different cell wall synthesis inhibitors. Expression of GFP-MreB was induced with 0.3% xylose. Cells were treated with 1x […]
Two images of the same field of view were recorded 30 sec apart and overlaid in ImageJ to visualize MreB mobility. A perfect overlap (yellow) indicates stalled MreB movement while distinct red and green spots are indicative of MreB mobility. Scale bar 2 µm.

[6] = test system: MurG in B. subtilis TNVS175; test: MurG localization; type: cell-based, Bacillus subtilis; details: 1x MIC; 30 min (vancomycin) or 1 h;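 further: normal MurG forms small membrane spots and peptidoglycan inhibition gives large clusters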
[7] = test system: cell wall biosynthesis in B. subtilis DSM402; test: Summary of cell wall synthesis experiments; type: cell-based, Bacillus subtilis
B. subtilis DSM402 [8] = details: Table 2; cells treated with 1x MIC
E. coli [9] = test system: E. coli
[10] = test system: MraY in B. subtilis TNVS284; test: MraY localization; details: 1x MIC; 30 min (vancomycin) or 1 h
[11] = test system: PbpB in B. subtilis EKB46; test: PbpB localization; details: 1x MIC; 30 min (vancomycin) or 1 h
[12] = test system: PonA in B. subtilis TNVS45; test: PonA localization; details: 1x MIC; 30 min (vancomycin) or 1 h
B. subtilis DSM402 [13] = test: microbe, parasite or virus in culture; details: Bacillus subtilis, DSM402, read-out: concentration (MIC against B. subtilis DSM402)
E. coli [14] = test: microbe, parasite or virus in culture; details: Escherichia coli, read-out: MICC (MIC of the test compound alone)
E. coli BCB472 = test: GlpT localization (inner membrane) in E. coli BCB472; details: 1x MIC, 1 h; GFP-tagged membrane protein
B. subtilis DSM402 [15] = test: Peptidoglycan integrity assay (acetic acid/methanol fixation); details: 1x MIC; 30 min (cell wall inhibitors) or 60 min
[16] = 1x MIC, 1 h, indicates cell lysis
[17] = interpretation of BCP in E. coli
[18] = interpretation of BCP in B. subtilis

T1 sequence (P0AES4 whole entry, one chain of several): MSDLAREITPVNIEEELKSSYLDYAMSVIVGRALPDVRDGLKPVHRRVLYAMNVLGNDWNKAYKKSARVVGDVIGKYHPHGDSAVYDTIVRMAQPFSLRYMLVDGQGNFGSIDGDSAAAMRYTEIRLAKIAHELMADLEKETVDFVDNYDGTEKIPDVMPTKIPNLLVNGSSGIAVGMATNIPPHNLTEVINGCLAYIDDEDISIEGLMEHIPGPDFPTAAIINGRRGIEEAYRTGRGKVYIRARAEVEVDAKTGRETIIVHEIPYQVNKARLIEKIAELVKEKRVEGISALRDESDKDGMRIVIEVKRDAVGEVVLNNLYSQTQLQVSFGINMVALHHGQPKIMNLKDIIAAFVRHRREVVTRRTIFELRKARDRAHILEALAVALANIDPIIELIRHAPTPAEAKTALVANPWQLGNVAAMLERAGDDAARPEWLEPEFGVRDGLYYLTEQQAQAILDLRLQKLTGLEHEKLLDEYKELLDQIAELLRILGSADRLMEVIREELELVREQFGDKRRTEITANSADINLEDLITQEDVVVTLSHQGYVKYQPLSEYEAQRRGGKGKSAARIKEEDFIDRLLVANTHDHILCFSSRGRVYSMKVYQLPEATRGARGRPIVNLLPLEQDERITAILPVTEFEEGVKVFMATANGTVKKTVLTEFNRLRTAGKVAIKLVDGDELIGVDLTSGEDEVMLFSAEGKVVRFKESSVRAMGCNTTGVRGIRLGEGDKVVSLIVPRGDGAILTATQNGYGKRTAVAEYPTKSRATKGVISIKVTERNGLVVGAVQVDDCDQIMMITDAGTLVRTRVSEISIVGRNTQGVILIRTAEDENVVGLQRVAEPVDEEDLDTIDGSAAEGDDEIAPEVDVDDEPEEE
T2 sequence (P0AFI2 whole entry): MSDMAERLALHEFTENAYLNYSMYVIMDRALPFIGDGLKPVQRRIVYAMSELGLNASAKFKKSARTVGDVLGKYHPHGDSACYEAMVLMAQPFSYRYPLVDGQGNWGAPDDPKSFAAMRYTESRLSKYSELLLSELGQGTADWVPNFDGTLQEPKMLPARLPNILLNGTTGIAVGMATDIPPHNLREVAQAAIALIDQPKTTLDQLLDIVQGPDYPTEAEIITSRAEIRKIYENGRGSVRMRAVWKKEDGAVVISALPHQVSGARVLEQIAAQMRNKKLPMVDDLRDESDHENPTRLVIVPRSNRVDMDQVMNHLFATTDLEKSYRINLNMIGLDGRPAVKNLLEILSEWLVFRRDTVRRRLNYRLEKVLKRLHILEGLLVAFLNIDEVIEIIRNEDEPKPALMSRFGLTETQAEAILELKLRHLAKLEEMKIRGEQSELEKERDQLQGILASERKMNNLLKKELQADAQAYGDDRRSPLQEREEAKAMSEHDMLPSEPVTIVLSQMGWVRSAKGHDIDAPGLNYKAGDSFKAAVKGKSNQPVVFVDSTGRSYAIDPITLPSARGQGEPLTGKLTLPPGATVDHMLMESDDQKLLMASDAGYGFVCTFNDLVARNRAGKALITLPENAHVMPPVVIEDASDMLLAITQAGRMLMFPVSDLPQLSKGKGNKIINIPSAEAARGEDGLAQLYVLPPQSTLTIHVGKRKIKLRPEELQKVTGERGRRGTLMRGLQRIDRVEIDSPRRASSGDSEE
T2 sequence (P20083 whole entry): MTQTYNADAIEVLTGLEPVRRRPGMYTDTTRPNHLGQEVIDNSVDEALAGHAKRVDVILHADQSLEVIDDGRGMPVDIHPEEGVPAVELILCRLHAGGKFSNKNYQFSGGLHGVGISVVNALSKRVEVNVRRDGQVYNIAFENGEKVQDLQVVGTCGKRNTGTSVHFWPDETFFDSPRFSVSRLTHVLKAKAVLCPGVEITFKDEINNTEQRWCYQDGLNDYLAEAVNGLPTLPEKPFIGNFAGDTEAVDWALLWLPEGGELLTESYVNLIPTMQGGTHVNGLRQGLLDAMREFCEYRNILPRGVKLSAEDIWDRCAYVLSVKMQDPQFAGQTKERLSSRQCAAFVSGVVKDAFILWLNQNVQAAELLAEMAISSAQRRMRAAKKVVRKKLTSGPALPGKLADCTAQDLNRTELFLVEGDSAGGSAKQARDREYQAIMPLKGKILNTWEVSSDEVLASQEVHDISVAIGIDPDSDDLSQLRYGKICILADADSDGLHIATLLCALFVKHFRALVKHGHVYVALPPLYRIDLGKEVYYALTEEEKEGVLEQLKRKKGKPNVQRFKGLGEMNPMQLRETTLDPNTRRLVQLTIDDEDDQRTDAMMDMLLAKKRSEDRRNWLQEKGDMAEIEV

For `CCn1cc(C(=O)O)c(=O)c2cc(F)c(N3CCN(CNc4ccc([N+](=O)[O-])cc4)CC3)cc21` [compound 21], the MIC (E. coli (W3110); read-out: concentration (MIC against E. coli W3110)) was 0.266 µM, the MIC (E. coli (W3110); E. coli W3110, converted from 0.266 μM, read-out: MIC) was 0.125 µg/mL and the MIC (E. coli (W3110); Gram-negative strain, average of duplicate experiments, read-out: MIC E. coli (W3110)) was 0.266 µM. For the same compound, the MIC (E. coli (W3110); Tab. S10, topoisomerase IV side, strain not given, values equal E. coli W3110 of Table 1, read-out: MIC) was 0.266 µM, the MIC [1] was 17 µM (≈ 8 µg/mL) and the MIC (P. aeruginosa (PAO1)) was 2.13 µM (≈ 1 µg/mL). It also gave an MIC [2] of 4.26 µM (≈ 2 µg/mL), an MIC (S. aureus (CCUG1800T); Tab. S10, DNA gyrase side, strain not given, values equal S. aureus CCUG1800T of Table 1, read-out: MIC) of 2.13 µM (≈ 1 µg/mL) and an MIC (S. aureus (CCUG1800T); read-out: MIC S. aureus (CCUG1800T)) of 2.13 µM (≈ 1 µg/mL). The MIC [3] was 34.1 µM (≈ 16 µg/mL), the MIC (E. faecalis (ATCC 19433)) was 2.13 µM (≈ 1 µg/mL) and the MIC [4] was 6.39 µM (≈ 3 µg/mL). The inhibition at 10 µM (E. coli DNA gyrase) was 77.9%, the inhibition at 10 µM (E. coli topoisomerase IV) was 45.5% and the DAPI (E. coli W3110; 1x MIC, 1 h, DNA condensation) was “condensed”. For the same compound, the phase contrast (E. coli W3110; [16]) was “dark”, the FM4-64 (E. coli W3110; 1x MIC, 1 h, membrane stain) was “Smooth” and the gyrase inhibition (E. coli W3110; [17]) was “yes”. For the same compound, the membrane damage (E. coli W3110; [17]) was “no”, the DAPI (B. subtilis DSM402 [5]; 1x MIC, 1 h, DNA condensation) was “condensed” and the phase contrast (B. subtilis DSM402 [5]; [16]) was “dark”. For the same compound, the FM4-64 (B. subtilis DSM402 [5]; 1x MIC, 1 h, membrane stain) was “smooth”, the gyrase inhibition (B. subtilis DSM402 [5]; [18]) was “yes” and the membrane damage (B. subtilis DSM402 [5]; [18]) was “no”. The MreB mobility (MreB in B. subtilis MW10) was “much smaller clusters and more clusters per cell; also recorded: mobile with static foci”, the “protein localization MurG” value [6] was “only visible in the proximity of the cell poles; also recorded: polar spotty” and the “CWB inhibited?” value [7] was “yes ^b”. For the same compound, the “μM (concentration used, 1x MIC)” value (B. subtilis DSM402 [8]) was 2.13 µM, the “FICC (fractional inhibitory concentration of the test compound)” value (E. coli [9]; MICCcheckerboard/MICC) was 0.0039 and the Outcome (E. coli [9]; checkerboard with mupirocin) was “additive (>0.5 to ≤4.0 as additive (no interaction))”. For the same compound, the “FICM (MICMcheckerboard/MICM)” value (E. coli [9]; mupirocin alone 64 µg/mL) was 1, the “FICI (fractional inhibitory concentration index)” value (E. coli [9]; with mupirocin, FICC+FICM) was 1.004 and the “protein localization MraY” value [10] was “neither compound affected the localization; also recorded: rough”. For the same compound, the “protein localization PbpB” value [11] was “neither compound affected the localization; also recorded: smooth”, the “protein localization PonA” value [12] was “neither compound affected the localization; also recorded: septal” and the MIC (B. subtilis DSM402 [13]) was 2.13 µM (≈ 1 µg/mL). The MIC (E. coli [14]) was 0.125 µg/mL, the GlpT (E. coli BCB472) was “Smooth” and the PG integrity (B. subtilis DSM402 [15]) was “came close to the cutoff value; also recorded: Intact”.
